{"source": "paper PMC10813753", "about": "(Biology, 2024)", "tested_on": "Calf thymus CT DNA", "assay": "CT DNA viscosity titration", "assay_type": "binding", "conditions": "25 °C, 10 mM sodium phosphate buffer pH 7.2, mean slope", "description": "The DNA viscosity titration was conducted as previously reported. For that purpose, Calf thymus CT DNA was used. DNA and compound 1 solutions were freshly prepared in 10 mM NaH2PO4/Na2HPO4 buffer, pH = 7.2. CT DNA solutions (~0.35 mM, nt) were equilibrated for 20 min at 25 °C in a thermostated bath, and 20 flow times were then recorded. Several aliquots (ca. 25–60 μL each) of a solution of ligand 1 (~1.8 mM) were sequentially added. After a 20 min equilibration at 25 °C, flow times were registered. Finally, viscosities (μ) were calculated at each titration point, from the averaged flow times recorded and the viscometer constant. The viscosity graphs were obtained by plotting (μ/μ0)^1/3 versus r, the molar ratio of bound ligand to DNA. The parameter μ0 represents the DNA solution viscosity in the absence of a compound.\nViscosity titration assays are known to provide useful information, mainly in reversible dsDNA-ligand non-covalent binding modes, and, especially, they are normally used to differentiate between classical DNA intercalants from groove or external binders. The theory of Cohen and Eisenberg establishes that the existence (or not) of changes in the viscosity of a DNA solution upon binding to small-molecule ligands could be correlated to the ligand binding mode. […]"}
{"substance": "2,2′-(1,10-Phenanthroline-2,9-diyl)-bis(methylene)-bis(hydrazine-1-carbothioamide) [compound 1]", "values": [{"measurement": "viscosity slope, (η/ηo)^1/3 versus r", "result": "ca. 0.13"}]}
